Where a name gives a salt, the structure may show the parent alone.
What was measured:
[1] = Oral bioavailability in Beagle dog (plasma AUC oral vs intravenous); type: in vivo; settings: 3.0 mg/kg, plasma sampled 30 minutes to 24 hours
Description: Each of the monohydrate and trihydrate crystals of Compound (I) produced in Examples 4 and 6 was orally administered to a Beagle dog at a dose of 3.0 mg/kg. After 30 minutes, 1 hour, 2 hours, 3 hours, 4 hours, 6 hours, 8 hours and 24 hours of the administration, the blood was collected, the concentration of Compound (I) in the plasma was measured, and the area under plasma concentration curve (AUC) was obtained.

[2] = Storage stability of crystals; type: physicochemical; settings: storage for 1 month
Source text: Still further, the monohydrate and trihydrate crystals of the present invention can be easily produced from α-type anhydride crystals and β-type anhydride crystals.

[3] = Dissolution rate in gastric juice model solution (JP-1 solution); type: physicochemical; settings: 20 mg crystals in 500 ml JP-1 solution, 37° C., FIG. 9
Description: Each 20 mg of the monohydrate and trihydrate crystals of Compound (I) produced in Examples 4 and 6 was added to 500 ml of a gastric juice model solution (JP-1 solution according to Japan Pharmacopeia) of 37° C., and the concentration of Compound (I) in the solution was measured over the course of time.

SMILES | bioavailability (ratio of the AUC value of oral administration to that of intravenous administration) ([1]; hydrochloride monohydrate) [%] | stability (chemical and physical) on storage [2] | bioavailability (ratio of the AUC value of oral administration to that of intravenous administration) ([1]; hydrochloride trihydrate) [%] | dissolution rate [3]
O=CN1CCC(C(=O)NCCN2CCC(=C3c4ccccc4C=Cc4ccccc43)CC2)CC1 [monohydrate crystals, N-(2-(4-(5H-dibenzo(a,d)cyclohepten-5-ylidene)-piperidino)ethyl)-1-formyl-4-piperidinecarboxamide hydrochloride monohydrate] | 73.4 | unchanged even after storage for 1 month |  | 
O=CN1CCC(C(=O)NCCN2CCC(=C3c4ccccc4C=Cc4ccccc43)CC2)CC1 [trihydrate crystals, N-(2-(4-(5H-dibenzo[a,d]cyclohepten-5-ylidene)-piperidino)ethyl)-1-formyl-4-piperidinecarboxamide hydrochloride trihydrate] |  |  | 49.6 | high dissolution rate compared to the monohydrate crystals
